# Data taken from US20250230138A1, “COMPOUNDS HAVING A T-STRUCTURE FORMED BY AT LEAST FOUR CYCLES FOR USE IN THE TREATMENT OF CANCER AND OTHER INDICATIONS” (TheRas, Inc., priority 2022, published 2025).
# Where two headings read alike, the source gives them in different places.
# What was measured:
# [1] = target: Cys242 in human PIK3CA (157-299) (Homo sapiens (Human), UniProt P42336); assay: Covalent modification assay using MALDI-TOF MS; type: biochemical; details: 4 h reaction time point
# Method in brief: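 PIK3CA (157-299) at 3.33 μM or 1 μM in 20 mM HEPES, 150 mM NaCl, 2 mM MgCl2, pH 7.3 was incubated with compound (from 10 mM DMSO stocks) in the dark at room temperature for 15 min, 30 min, 2 h or 4 h. Linear-mode MALDI-TOF peak heights gave percent modification.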
# pAKT in BT474 cells = assay: Cell-based pAKT HTRF assay in BT474 cells; details: BT474 cells, 4 hr incubation, read-out: pAKT inhibition IC50 in BT474 cells
# Method in brief: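 BT474 cells in DMEM/10% FBS were treated the day after seeding with a 9-point, 3-fold compound series from 3 μM (0.25% DMSO) for 4 hr. Lysates were mixed with d2 and Eu cryptate anti-pAKT antibodies and incubated 4-24 h at room temperature. HTRF was read with excitation at 320 nm and emission at 615 nm.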
# [2] = 3.33 μM protein target, 1:7.5 protein to compound ratio (compounds 1-852)
# [3] = 1 μM protein target, 1:5 protein to compound ratio (compounds 853-1279)
# Chain of Cys242 in human PIK3CA (157-299) (P42336 157-299): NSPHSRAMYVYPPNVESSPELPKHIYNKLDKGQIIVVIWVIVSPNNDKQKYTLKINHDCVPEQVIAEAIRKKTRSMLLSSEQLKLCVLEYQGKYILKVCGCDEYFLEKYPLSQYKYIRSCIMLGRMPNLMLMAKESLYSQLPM
IC50 (pAKT in BT474 cells; Compounds 10-999),IC50 (pAKT in BT474 cells; Compounds 1000-1279),"IC50 (pAKT in BT474 cells; Homo sapiens, BT-474, Compounds 10-999)",Compound,"% of modification [1, 2]","% of modification [1, 3]"
< 100 nM,–,–,C=CC(=O)N1CC(n2cc(-c3nc(-c4ccc(S(N)(=O)=O)cc4)c4ccsc4c3-c3ccc(F)cc3OCCOC)cn2)C1 [Compound 238],A (percent of modification of PIK3CA protein ≥75%),–
< 100 nM,–,–,C=CC(=O)N1CCn2nc(-c3nc(-c4ccc5c(c4)CCN(C)CC5)c4ccsc4c3-c3c(F)cc(F)cc3OCCOC)cc2C1C (stereo not drawn) [Compound 996],–,A (percent of modification of PIK3CA protein ≥75%)
–,< 100 nM,–,C=CC(=O)N1CCn2nc(-c3nc(-c4ccc5c(c4)c(F)nn5C)c4ccsc4c3-c3c(F)cc(F)cc3OCCOC)cc2[C@H]1C [Compound 1165],–,A (percent of modification of PIK3CA protein ≥75%)
< 100 nM,–,–,C=CC(=O)N1CC(n2cc(-c3nc(-c4ccc5c(c4)CNC(=O)C5)c4ccsc4c3-c3ccc(F)cc3OC)cn2)C1 [Compound 79],A (percent of modification of PIK3CA protein ≥75%),–
100 to 1000 nM,–,–,C=CC(=O)N1CC[C@H](n2cc(-c3nc(-c4cnn(C)c4)c4ccsc4c3-c3ccc(F)cc3OCC3CCNC(=O)C3)ccc2=O)C1 (stereo partly drawn) [Compound 213],A (percent of modification of PIK3CA protein ≥75%),–
< 100 nM,–,–,C=CC(=O)N1Cc2cc(-c3nc(-c4cnc5c(c4)CN(C)C5=O)c4ccsc4c3-c3c(F)cc(F)cc3OCCOC)nn2[C@@H](C)C1 [Compound 506],A (percent of modification of PIK3CA protein ≥75%),–
< 100 nM,–,–,C=CC(=O)N1CCn2nc(-c3nc(-c4ccc5nn(C)cc5c4)c4ccsc4c3-c3c(F)cc(F)cc3OC[C@@H](C)O)cc2[C@@H]1C [Compound 646],A (percent of modification of PIK3CA protein ≥75%),–
< 100 nM,–,–,C=CC(=O)N1CCn2nc(-c3nc(-c4ccc5c(c4)CNC(=O)C5)c4ccsc4c3-c3c(F)cc(F)cc3OCCOC)cc2C1C (stereo not drawn) [Compound 931],–,A (percent of modification of PIK3CA protein ≥75%)
< 100 nM,–,–,C=CC(=O)N1Cc2cc(-c3nc(-c4cnn(C)c4)c4ccsc4c3-c3c(F)cc(F)cc3OCCO)nn2[C@@H](C)C1 [Compound 567],A (percent of modification of PIK3CA protein ≥75%),–
< 100 nM,–,–,C=CC(=O)N1Cc2cc(-c3nc(-c4ccc5c(cnn5C)c4)c4ccsc4c3-c3c(F)cc(F)cc3OCC(C)(C)O)nn2[C@@H](C)C1 [Compound 848],A (percent of modification of PIK3CA protein ≥75%),–
> 3000 nM,–,–,"C=CC(=O)N1CCc2nc(-c3nc(-c4cnc5c(c4)CNC(=O)C5)c4ccsc4c3-c3c(F)cc(F)cc3OC(C)C)sc2C1 (single isomer, unassigned) [Compound 587]",D (percent of modification <25%),–
–,< 100 nM,–,C=CC(=O)N1CCn2nc(-c3nc(-c4ccc(N5CCN(C)CC5)cc4)c4ccsc4c3-c3c(F)cc(F)cc3OCCO)cc2C1C (stereo not drawn) [Compound 1089],–,A (percent of modification of PIK3CA protein ≥75%)
–,< 100 nM,–,C=CC(=O)N1CCn2nc(-c3nc(-c4ccc5c(c4)C4(CC4)CN(C)C5)c4ccsc4c3-c3c(F)cc(F)cc3OCCOC)cc2C1C (stereo not drawn) [Compound 1193],–,A (percent of modification of PIK3CA protein ≥75%)
< 100 nM,–,–,C=CC(=O)N1CCn2nc(-c3nc(-c4cnc(C)nc4)c4ccsc4c3-c3c(F)cc(F)cc3OCC(C)O)cc2C1C (stereo not drawn) [Compound 791],A (percent of modification of PIK3CA protein ≥75%),–
< 100 nM,–,–,"C=CC(=O)N1CCc2ccc(-c3nc(-c4ccc5c(c4)CNC5=O)c4ccsc4c3-c3c(F)cc(F)cc3OCCOC)cc2C1 (single isomer, unassigned) [Compound 887]",–,A (percent of modification of PIK3CA protein ≥75%)
< 100 nM,–,–,C=CC(=O)N1CCc2ncc(-c3nc(-c4cccc(C#N)c4)c4ccsc4c3-c3c(F)cc(F)cc3OCCOC)cc2C1 [Compound 380],A (percent of modification of PIK3CA protein ≥75%),–
–,< 100 nM,–,C=CC(=O)N1CCn2nc(-c3nc(-c4ccc(CCN(C)C)cc4)c4ccsc4c3-c3c(F)cc(F)cc3OCCOC)cc2C1C (stereo not drawn) [Compound 1060],–,A (percent of modification of PIK3CA protein ≥75%)
< 100 nM,–,–,C=CC(=O)N1Cc2cc(-c3nc(N4CCc5c(cnn5C)C4)c4ccsc4c3-c3c(F)cc(F)cc3OCCOC)nn2CC1C (stereo not drawn) [Compound 949],–,A (percent of modification of PIK3CA protein ≥75%)

IC50 (pAKT in BT474 cells; Compounds 10-999),IC50 (pAKT in BT474 cells; Compounds 1000-1279),"IC50 (pAKT in BT474 cells; Homo sapiens, BT-474, Compounds 10-999)",Compound,"% of modification [1, 2]","% of modification [1, 3]"
< 100 nM,–,–,C=CC(=O)N1Cc2cc(-c3nc(-c4ccc5c(c4)CCN(C)C5)c4ccsc4c3-c3c(F)cc(F)cc3OC)nn2[C@@H](C)C1 [Compound 563],A (percent of modification of PIK3CA protein ≥75%),–
< 100 nM,–,–,C=CC(=O)N1CCn2nc(-c3nc(-c4cnc5c(cnn5C)c4)c4ccsc4c3-c3c(F)cc(F)cc3OCCO)cc2C1C (stereo not drawn) [Compound 877],–,A (percent of modification of PIK3CA protein ≥75%)
–,< 100 nM,–,C=CC(=O)N1CCn2nc(-c3nc(-c4ccc(CC(=O)NC)cc4)c4ccsc4c3-c3c(F)cc(F)cc3OCCOC)cc2C1C (stereo not drawn) [Compound 1017],–,A (percent of modification of PIK3CA protein ≥75%)
< 100 nM,–,–,C=CC(=O)N1CC(n2cc(-c3nc(-c4ccc5c(c4)CCNC5)c4ccsc4c3-c3ccc(F)cc3OCCOC)ccc2=O)C1 [Compound 157],A (percent of modification of PIK3CA protein ≥75%),–
< 100 nM,–,–,C=CC(=O)N1CCc2nc(-c3nc(-c4ncn(C)n4)c4ccsc4c3-c3c(F)cc(F)cc3OC(C)C)sc2C1 [Compound 390],A (percent of modification of PIK3CA protein ≥75%),–
< 100 nM,–,–,C=CC(=O)N1CCn2nc(-c3nc(-c4ccc5c(c4)C(O)CC5)c4ccsc4c3-c3ccc(F)cc3OCCOC)nc2C1 (stereo not drawn) [Compound 192],A (percent of modification of PIK3CA protein ≥75%),–
–,–,< 100 nM,"C=CC(=O)N1CCn2nc(-c3nc(N4CCC5(CC4)COC5)c4ccsc4c3-c3ccc(F)cc3OCCOC)cc2C1 [Compound 198, 1-[2-[7-[4-fluoro-2-(2-methoxyethoxy)phenyl]-4-(2-oxa-7-azaspiro[3.5]nonan-7-yl)thieno[3,2-c]pyridin-6-yl]-6,7-dihydro-4H-pyrazolo[1,5-a]pyrazin-5-yl]prop-2-en-1-one]",A (percent of modification of PIK3CA protein ≥75%),–
< 100 nM,–,–,C=CC(=O)N1CC(n2cc(-c3nc(-c4ccc5c(c4)CCNC5)c4ccsc4c3-c3ccc(F)cc3OCCOC)cc(C)c2=O)C1 [Compound 178],A (percent of modification of PIK3CA protein ≥75%),–
–,100 to 1000 nM,–,"C=CC(=O)N1CCn2nc(-c3nc(-c4ccc(C5(C(=O)NC)CC5)cc4)c4ccsc4c3-c3c(F)cc(F)cc3OC)cc2[C@H]1C (single isomer, unassigned) [Compound 1151]",–,A (percent of modification of PIK3CA protein ≥75%)
100 to 1000 nM,–,–,C=CC(=O)N1CCc2nc(-c3nc(-c4ccc5c(c4)CCNC5)c4ccsc4c3-c3c(F)cc(F)cc3OCCOC)sc2C1 [Compound 366],A (percent of modification of PIK3CA protein ≥75%),–
–,> 1000 nM,–,C=CC(=O)N1CCc2ccc(-c3nc(-c4cnc(N5CCN(C)CC5)nc4)c4ccsc4c3-c3c(F)cc(F)cc3OCCOC)cc2C1 [Compound 1069],–,D (percent of modification <25%)
–,< 100 nM,–,C=CC(=O)N1CCn2nc(-c3nc(-c4ccc5c(cnn5C)c4F)c4ccsc4c3-c3c(F)cc(F)cc3OCCOC)cc2C1C (stereo not drawn) [Compound 1144],–,A (percent of modification of PIK3CA protein ≥75%)
100 to 1000 nM,–,–,C=CC(=O)N1CC(n2cc(-c3nc(N4CCC5(CC4)CNC(=O)C5)c4ccsc4c3-c3ccc(F)cc3OCCOC)cn2)C1 [Compound 150],A (percent of modification of PIK3CA protein ≥75%),–
< 100 nM,–,–,C=CC(=O)N1CCc2nc(-c3nc(-c4ccc5c(c4)CCN(CCO)C5)c4ccsc4c3-c3ccc(F)cc3OCCOC)sc2C1 [Compound 128],A (percent of modification of PIK3CA protein ≥75%),–
–,< 100 nM,–,C=CC(=O)N1CCn2nc(-c3nc(-c4cnn(C5CN(C)C5)c4)c4ccsc4c3-c3c(F)cc(F)cc3OCCOC)cc2C1C (stereo not drawn) [Compound 1029],–,A (percent of modification of PIK3CA protein ≥75%)
< 100 nM,–,–,C=CC(=O)N1CCc2nc(-c3nc(-c4cnc5c(c4)CNC(=O)C5)c4ccsc4c3-c3c(F)cc(F)cc3OCCOC)sc2C1 [Compound 446],A (percent of modification of PIK3CA protein ≥75%),–
–,100 to 1000 nM,–,C=CC(=O)N1CCn2nc(-c3nc(-c4ccc5c(c4)CN(CC(F)F)CC5)c4ccsc4c3-c3c(F)cc(F)cc3OCCOC)cc2C1C (stereo not drawn) [Compound 1248],–,A (percent of modification of PIK3CA protein ≥75%)

Compound,IC50 (pAKT in BT474 cells; Compounds 10-999),IC50 (pAKT in BT474 cells; Compounds 1000-1279),"IC50 (pAKT in BT474 cells; Homo sapiens, BT-474, Compounds 10-999)","% of modification [1, 2]","% of modification [1, 3]"
"C=CC(=O)N1CCn2nc(-c3nc(-c4ccc5c(c4)CNC5=O)c4c(c3-c3c(F)cc(F)cc3OCCOC)CCC4)cc2[C@H]1C [Compound 1174, 5-((R)-3-((R)-5-acryloyl-4-methyl-4,5,6,7-tetrahydropyrazolo[1,5-a]pyrazin-2-yl)-4-(2,4-difluoro-6-(2-methoxyethoxy)phenyl)-6,7-dihydro-5H-cyclopenta[c]pyridin-1-yl)isoindolin-1-one]",–,< 100 nM,–,–,A (percent of modification of PIK3CA protein ≥75%)
